Several values for one entry are separate records, joined by “and”; a condition that tells them apart may be missing. Equal values may be shown once. Read-outs that look alike come from different tables or passages of the source.
What was measured:
[1] = Toxicity analysis of test compounds in 2.2.15 cells (neutral red dye uptake); format: cell-based; details: human
Protocol: Toxicity analyses were performed in order to assess whether any observed antiviral effects are due to a general effect on cell viability. The method used was based on the uptake of neutral red dye, a standard and widely used assay for cell viability in a variety of virus-host systems, including HSV (herpes simplex virus) and HIV. Details of the procedure are provided in the toxicity table legends.
The test compounds were used in the form of 40 mM stock solutions in DMSO (frozen on dry ice). Daily aliquots of the test samples were made and frozen at -20° C. so that each individual aliquot would be subjected to a single freeze-thaw cycle. The daily test aliquots were thawed, suspended into culture medium at room temperature and immediately added to the cell cultures° The compounds were tested at 0.0 and 1 μM for antiviral activity. The compounds were tested for toxicity at concentrations up to 300 μM.
Toxicity analyses were performed in 96-well flat bottomed tissue culture plates. Cells for the toxicity analyses were cultured and treated with test compounds with the same schedule as used for the antiviral evaluations. Each compound was tested at 4 concentrations, each in triplicate cultures. Uptake of neutral red dye was used to determine the relative level of toxicity. The absorbance of internalized dye at […] (A510) was used for the quantitative analysis. Values are presented as a percentage of the average A510 values (±standard deviations) in 9 separate cultures of untreated cells maintained on the same 96-well plate as the test compounds.

[2] = tested on: HBV; experiment: Effect of nucleosides on HBV production in 2.2.15 cells (HBV virion DNA and intracellular HBV DNA); format: cell-based, Hepatitis B virus; details: for inhibition at 10 µM: Hepatitis B virus
Protocol: The ability of β-D-dioxolane-nucleosides to inhibit HBV can be measured by various experimental techniques. The assay used herein to evaluate the ability of the disclosed compounds to inhibit the replication of HBV is described in detail in Korba and Gerin, Antiviral Res. 19:55-70 (1992). […] The other compounds disclosed herein are evaluated similarly.
The antiviral evaluations were performed on two separate passages of cells, two cultures per passage (4 cultures total). All wells, in all plates, were seeded at the same density and at the same time.
Due to the inherent variations in the levels of both intracellular and extracellular HBV DNA, only depressions greater than 3.0-fold (for HBV virion DNA) or 2.5-fold (for HBV DNA replication intermediates) from the average levels for these HBV DNA forms in untreated cells are generally considered to be statistically significant [P<0.05] (Korba and Gerin, Antiviral Res. 19: 55-70, 1992). The levels of integrated HBV DNA in each cellular DNA preparation (which remain constant on a per cell basis in these experiments) were used to calculate the levels of intracellular HBV DNA forms, thereby eliminating technical variations inherent in the blot hybridization assays.
The test compounds were used in the form of 40 mM stock solutions in DMSO (frozen on dry ice). Daily aliquots of the test samples were made and frozen at -20° C. so that each individual aliquot would be subjected to a single freeze-thaw cycle. […] The compounds were tested for toxicity at concentrations up to 300 μM.

[3] = tested on: 2.2.15 cells; details: versus untreated cultures; Korba and Gerin 1992; read-out: Concentration at which a 2-fold reduction in dye uptake is typically observed; cited from earlier work
[4] = Toxicity analysis of test compounds in 2.2.15 cells (neutral red dye uptake); format: cell-based; details: human; remark: listed apart in the source
[5] = tested on: HBV; details: relative to average levels in untreated cells; Korba and Gerin 1992; read-out: Concentration at which a 90% depression of HBV RI is typically observed; cited from earlier work
[6] = 10 μM, individual culture, listed as DDC

SMILES: Nc1ccn([C@H]2CC[C@@H](CO)O2)c(=O)n1 [2',3'-ddC, 2',3'-dideoxycytosine, reference compound]
- viability at 30 µM ([1]; 30 μM): 101 ± 1%
- viability at 100 µM ([1]; 100 μM): 97 ± 2%
- viability at 300 µM ([1]; 300 μM): 44 ± 1%
- HBV virion DNA, day 0 [2, 6]: 66 pg/ml of cultured medium and 58 pg/ml of cultured medium and 67 pg/ml of cultured medium and 51 pg/ml of cultured medium
- HBV virion DNA, day 3 [2, 6]: 50 pg/ml of cultured medium and 52 pg/ml of cultured medium and 51 pg/ml of cultured medium and 48 pg/ml of cultured medium
- HBV virion DNA, day 6 [2, 6]: 20 pg/ml of cultured medium and 13 pg/ml of cultured medium and 19 pg/ml of cultured medium and 17 pg/ml of cultured medium
- HBV virion DNA, day 9 [2, 6]: 2 pg/ml of cultured medium and 3 pg/ml of cultured medium
- Intracellular HBV DNA on Day 10, Mono (episomal 3.2kB HBV genomes) [2, 6]: 0.9 pg/μM of cellular DNA and 1.0 pg/μM of cellular DNA and 1.4 pg/μM of cellular DNA and 1.1 pg/μM of cellular DNA
- Intracellular HBV DNA on Day 10, RI (HBV DNA replication intermediates) [2, 6]: 6 pg/μM of cellular DNA and 4 pg/μM of cellular DNA and 5 pg/μM of cellular DNA and 7 pg/μM of cellular DNA
- HBV virion DNA, day 0, mean ([2]; 10 μM, mean of 4 cultures): 60.50 pg/ml of cultured medium
- HBV virion DNA, day 3, mean ([2]; 10 μM, mean of 4 cultures): 50.25 pg/ml of cultured medium
- HBV virion DNA, day 6, mean ([2]; 10 μM, mean of 4 cultures): 17.25 pg/ml of cultured medium
- HBV virion DNA, day 9, mean ([2]; 10 μM, mean of 4 cultures): 2.25 pg/ml of cultured medium
- Intracellular HBV DNA on Day 10, Mono, mean ([2]; 10 μM, mean of 4 cultures): 1.10 pg/μM of cellular DNA
- Intracellular HBV DNA on Day 10, RI, mean ([2]; 10 μM, mean of 4 cultures): 5.50 pg/μM of cellular DNA
- inhibition at 10 µM ([2]; 0 h, read-out: % inhibition, HBV virion DNA, day 0): 3.97%
- inhibition at 10 µM ([2]; 72 h, read-out: % inhibition, HBV virion DNA, day 3): 22.4%
- inhibition at 10 µM ([2]; 144 h, read-out: % inhibition, HBV virion DNA, day 6): 77.5%
- inhibition at 10 µM ([2]; 216 h, read-out: % inhibition, HBV virion DNA, day 9): 97%
- inhibition at 10 µM ([2]; 240 h, read-out: % inhibition, intracellular HBV DNA Mono, Day 10): 56.4%
- inhibition at 10 µM ([2]; 240 h, read-out: % inhibition, intracellular HBV DNA RI, Day 10): 92.5%
- Depression of HBV DNA replication ([2]; positive treatment control, at the concentration used): significant depressions of HBV DNA replication
- CC50 [3]: 150 to 190 µM
- viability at 1000 µM [4]: 5 ± 1%
- EC90 [5]: 9 to 12 µM
